Legend:
[1] = tested on: angiotensin converting enzyme (ACE); assay: Ratio of plasma Ang II/Ang I as in vivo ACE-activity after oral enalapril; set-up: species or system human; settings: for In vivo ACE-activity (ratio of plasma Ang II to Ang I) as percent of baseline / Ratio Ang II/Ang I: mean ± SEM; for Ratio Ang II/Ang I: plasma, healthy humans, single oral dose 20 mg enalapril
Protocol: (§1) Ten normal volunteers aged 20 to 28 years (body weight 63 to 85 kg) participated in the study. On the study day, they came to the hospital at 7 a.m. and were installed in a supine position. At 8 a.m., the subjects ingested 20 mg enalapril, an inhibitor of angiotensin converting enzyme. Venous blood samples were collected before (time 0) and at 0.5, 1, 2, 4, 8 and 24 hours after enalapril intake. The subjects remained in supine position for one hour prior to blood sampling and no food intake was permitted within three hours prior to sampling.
(§2) For the measurement of Ang II (Nussberger J., Brunner D. B., Waeber B., Brunner H. R., Hypertension 1985; 7 (Suppl. I): 11-17) and immunoreactive Ang I (Nussberger J., Brunner D. B., Waeber B., Brunner H. R., Life Sci. 1988; 42:1683-1688), another 10 ml blood were collected on an inhibitor cocktail containing EDTA and renin inhibitor to prevent degradation and generation of these peptides in vitro. Samples were centrifuged at 4° C. and plasma aliquots of 2.2 ml snap frozen and stored as described above.
(§3) Plasma ACE-activity was also measured by an established method using as substrate synthetic carbobenzoxy-Phe-His-Leu at 1.8 mM concentration (Piquilloud Y., Reinharz A., Roth M.. Biochem. Biophys. Acta 1970; 206: 136-142). The ratio of the plasma concentrations Ang II/Ang I was used for estimation of ACE-activity "in vivo" (Nussberger J., Juillerat L., Perret F., Waeber B., Bellet M., Brunner H. R., Menard J., Am Heart J. 1989; 117: 717-722).

[2] = tested on: angiotensin II; assay: Plasma angiotensin II concentration after oral enalapril; type: in vivo, human; settings: healthy humans, single oral dose 20 mg enalapril, mean ± SEM
Protocol: as §1, §2

[3] = tested on: angiotensin converting enzyme (ACE); assay: Plasma ACE-activity, trapping-assay (Ang I substrate, monoclonal antibody TRAP, RIA) after oral enalapril; type: in vivo, human; settings: for ACE-activity measured in vitro with the trapping-assay as percent of baseline / ACE-Activity trapping-assay: mean ± SEM; for ACE-Activity trapping-assay: healthy humans, single oral dose 20 mg enalapril
Protocol: as §1
(§4) For the measurement of ACE-activity, blood samples (5 ml) were collected from the antecubital vein into prechilled glass tubes containing heparin (56 USP) and 25 μl renin inhibitor CGP 29287 (Ciba-Geigy, Basel, Switzerland) at 1 mM in water. Blood was centrifuged at 4° C. and 2000 g for 10 minutes and plasma aliquots of 0.5 ml were snap frozen in liquid nitrogen and stored at -70° C. until analyzed.
All procedures were done in an ice-water bath unless stated otherwise: Plasma was thawed and centrifuged at 4° C. and 40 μl supernatant was pipetted into a small polypropylene tube. Ten microliter monoclonal antibody TRAP (which was secreted from the Hybridoma cell line TRAP DSM ACC2003) was added (mouse ascites diluted 1:8400 in 3M tris buffer at pH 7.3). One picomole angiotensin I was added in 10 microliter albumin buffer containing--for blank determination only--EDTA at 0.2M concentration. After mixing and cold centrifugation in order to concentrate the mixture at the bottom of the tube (1 minute at 2000 g) samples were incubated in a water bath at 37° C. for 20 minutes. Incubation was stopped by returning the samples to the ice-water bath. Forty microliters of albumin buffer without/with 0.2M EDTA was added to blanks/samples in order to equalize conditions. Each tube (total 100 microliters) finally received 1 ml albumin buffer containing 1 fmol ^125 I-Ang II (2000 counts per minute) and EDTA at 0.02M concentration. After a 24 hour incubation at 4° C., antibody-bound and free Ang II were separated by adding 0.3 ml water containing 2% dextran-coated charcoal, mixing for 10 minutes, centrifugation at 4° C. (for 20 minutes at 6000 g) and decanting of the supernatant. Supernatant and pellet were counted in a ten-well scintillation counter (GammamasterR, Wallac, Turku, Finland) and generated Ang II was read from a simultaneously established standard curve.
For the standard curve, increasing amounts of unlabeled Ang II ranging from 16 to 4000 fmol in 40 μl pool plasma which contained unmeasurably low endogenous Ang I and Ang II and renin inhibitor CGP 29287 at 0.01 mM concentration; antibody in 3M tris buffer (10 μl) and 1000 fmol Ang I in EDTA-albumin buffer (10 μl) were added in order to obtain identical conditions as for the unknown samples.

[4] = tested on: angiotensin I; assay: Plasma angiotensin I concentration after oral enalapril; type: in vivo, human; settings: healthy humans, single oral dose 20 mg enalapril, mean ± SEM
Protocol: as §1, §2

[5] = tested on: angiotensin converting enzyme (ACE); assay: Plasma ACE-activity, conventional assay (substrate carbobenzoxy-Phe-His-Leu) after oral enalapril; type: in vivo, human; settings: for Plasma ACE-activity by the conventional method, % of pretreatment values / ACE-Activity Conventional assay: mean ± SEM; for ACE-Activity Conventional assay: healthy humans, single oral dose 20 mg enalapril
Protocol: as §1, §4, §3

[6] = 4 hours post enalapril intake (20 mg oral)
[7] = 8 hours post enalapril intake (20 mg oral)
[8] = 24 hours post enalapril intake (20 mg oral)

CCOC(=O)[C@H](CCc1ccccc1)N[C@@H](C)C(=O)N1CCC[C@H]1C(=O)O [enalapril]
In vivo ACE-activity (ratio of plasma Ang II to Ang I) as percent of baseline [1, 6]: 2.1±0.3% | In vivo ACE-activity (ratio of plasma Ang II to Ang I) as percent of baseline [1, 7]: 2.0±0.4% | In vivo ACE-activity (ratio of plasma Ang II to Ang I) as percent of baseline [1, 8]: 21.9±5.0% | In vivo ACE-activity (ratio of plasma Ang II to Ang I) returned to ([1]; at 24 hours): 22% | Decrease of in vivo ACE-activity (ratio of plasma Ang II to Ang I) ([1]; at peak inhibition): 98% | Ratio Ang II/Ang I ([1]; 0.5 h after intake): .748 ± .101 | Ratio Ang II/Ang I ([1]; 1 h after intake): .315 ± .094 | Ratio Ang II/Ang I ([1]; 2 h after intake): .029 ± .006 | Ratio Ang II/Ang I ([1]; 4 h after intake): .015 ± .003 | Ratio Ang II/Ang I ([1]; 8 h after intake): .016 ± .003 | Ratio Ang II/Ang I ([1]; 24 h after intake): .147 ± .027 | Angiotensin II ([2]; 0.5 h after intake): 4.6 ± 0.5 fmol/mL | Angiotensin II ([2]; 1 h after intake): 2.9 ± 0.5 fmol/mL | Angiotensin II ([2]; 2 h after intake): 1.1 ± 0.3 fmol/mL | Angiotensin II ([2]; 4 h after intake): 1.0 ± 0.2 fmol/mL | Angiotensin II ([2]; 8 h after intake): 1.6 ± 0.4 fmol/mL | Angiotensin II ([2]; 24 h after intake): 3.8 ± 0.5 fmol/mL | ACE-activity measured in vitro with the trapping-assay as percent of baseline [3, 6]: 3.6±2.4% | ACE-activity measured in vitro with the trapping-assay as percent of baseline [3, 7]: 1.3±1.3% | ACE-activity measured in vitro with the trapping-assay as percent of baseline [3, 8]: 27.4±3.4% | Plasma ACE-activity measured in vitro, trapping method, returned to ([3]; at 24 hours): 27% | Decrease of plasma ACE-activity measured in vitro, trapping method ([3]; at peak inhibition): 99% | ACE-Activity trapping-assay ([3]; 0.5 h after intake): 295 ± 27 fmol/mL/min | ACE-Activity trapping-assay ([3]; 1 h after intake): 107 ± 17 fmol/mL/min | ACE-Activity trapping-assay ([3]; 2 h after intake): 28 ± 8 fmol/mL/min | ACE-Activity trapping-assay ([3]; 4 h after intake): 15 ± 10 fmol/mL/min | ACE-Activity trapping-assay ([3]; 8 h after intake): 5 ± 5 fmol/mL/min | ACE-Activity trapping-assay ([3]; 24 h after intake): 87 ± 10 fmol/mL/min | Angiotensin I ([4]; 0.5 h after intake): 7.3 ± 1.5 fmol/mL | Angiotensin I ([4]; 1 h after intake): 13.5 ± 3.0 fmol/mL | Angiotensin I ([4]; 2 h after intake): 45.7 ± 12.9 fmol/mL | Angiotensin I ([4]; 4 h after intake): 66.8 ± 17.6 fmol/mL | Angiotensin I ([4]; 8 h after intake): 76.6 ± 15.9 fmol/mL | Angiotensin I ([4]; 24 h after intake): 32.1 ± 6.4 fmol/mL | Plasma ACE-activity by the conventional method, % of pretreatment values ([5]; 4 hours after enalapril administration (20 mg oral)): 16.5±1.7% | Plasma ACE-activity by the conventional method, % of pretreatment values ([5]; 8 hours after enalapril administration (20 mg oral)): 20.8±1.7% | Plasma ACE-activity by the conventional method, % of pretreatment values ([5]; 24 hours after enalapril administration (20 mg oral)): 62.6±1.6% | ACE-activity, conventional method, return towards baseline ([5]; at 24 hours): 66% | Peak ACE-inhibition, decrease from baseline, conventional method ([5]; at peak inhibition): 83% | ACE-Activity Conventional assay ([5]; 0.5 h after intake): 18.1 ± 1.7 nmol/mL/min | ACE-Activity Conventional assay ([5]; 1 h after intake): 12.1 ± 1.2 nmol/mL/min | ACE-Activity Conventional assay ([5]; 2 h after intake): 4.5 ± 0.8 nmol/mL/min | ACE-Activity Conventional assay ([5]; 4 h after intake): 3.0 ± 0.4 nmol/mL/min | ACE-Activity Conventional assay ([5]; 8 h after intake): 3.7 ± 0.4 nmol/mL/min | ACE-Activity Conventional assay ([5]; 24 h after intake): 11.2 ± 1.0 nmol/mL/min

From patent US5635359A, “Method for measuring the activity of angiotensin converting enzyme in biological samples” (priority 1991, dated 1997)
